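Tested at 5 concentrations; 48 h exposure; 96-well plates; endpoints linearly interpolated, else capped at highest concentration. Here, GI50 denotes the concentration required for 50% inhibition of growth. The concentration for full growth arrest is given as TGI.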
Legend:
Experiment in all cases: NCI tumour cell line growth inhibition, 48 h
NCI-H522 lung = test system: NCI-H522 lung
MDA-MB-435 = test system: MDA-MB-435
MDA-MB-231 breast = test system: MDA-MB-231 breast
HCT-116 colon = test system: HCT-116 colon
RPMI-8226 leukemia = test system: RPMI-8226 leukemia
NCI-H460 lung = test system: NCI-H460 lung
SF-539 CNS = test system: SF-539 CNS
DU-145 prostate = test system: DU-145 prostate
IGROV1 ovarian = test system: IGROV1 ovarian
HT29 colon = test system: HT29 colon
CCRF-CEM leukemia = test system: CCRF-CEM leukemia
RXF 393 renal = test system: RXF 393 renal
MALME-3M melanoma = test system: MALME-3M melanoma
SNB-19 CNS = test system: SNB-19 CNS
ACHN renal = test system: ACHN renal
SR leukemia = test system: SR leukemia
U251 CNS = test system: U251 CNS
HOP-92 NSCLC = test system: HOP-92 NSCLC
A549 NSCLC = test system: A549 NSCLC
PC-3 prostate = test system: PC-3 prostate
NCI-H23 lung = test system: NCI-H23 lung
786-0 renal = test system: 786-0 renal
UACC-257 melanoma = test system: UACC-257 melanoma
M14 melanoma = test system: M14 melanoma
COLO 205 colon = test system: COLO 205 colon
OVCAR-4 ovarian = test system: OVCAR-4 ovarian
SK-MEL-28 melanoma = test system: SK-MEL-28 melanoma
HCT-15 colon = test system: HCT-15 colon
A498 renal = test system: A498 renal
NCI/ADR-RES ovarian = test system: NCI/ADR-RES ovarian
OVCAR-8 ovarian = test system: OVCAR-8 ovarian
KM12 colon = test system: KM12 colon
MOLT-4 leukemia = test system: MOLT-4 leukemia
SW-620 colon = test system: SW-620 colon
HL-60(TB) leukemia = test system: HL-60(TB) leukemia
HS 578T breast = test system: HS 578T breast
UACC-62 melanoma = test system: UACC-62 melanoma
TK-10 renal = test system: TK-10 renal
OVCAR-3 ovarian = test system: OVCAR-3 ovarian
SK-OV-3 ovarian = test system: SK-OV-3 ovarian
OVCAR-5 ovarian = test system: OVCAR-5 ovarian
SNB-75 CNS = test system: SNB-75 CNS
UO-31 renal = test system: UO-31 renal
SK-MEL-5 melanoma = test system: SK-MEL-5 melanoma
SN12C renal = test system: SN12C renal
SF-295 CNS = test system: SF-295 CNS
SF-268 CNS = test system: SF-268 CNS
K-562 leukemia = test system: K-562 leukemia
LOX IMVI melanoma = test system: LOX IMVI melanoma
SK-MEL-2 melanoma = test system: SK-MEL-2 melanoma
HCC-2998 colon = test system: HCC-2998 colon
HOP-62 NSCLC = test system: HOP-62 NSCLC
CAKI-1 renal = test system: CAKI-1 renal
NCI-H226 lung = test system: NCI-H226 lung
EKVX NSCLC = test system: EKVX NSCLC

## CN(CCNCc1cn(C)c2c1ccc1ccccc12)CCNCc1cn(C)c2c1ccc1ccccc12
NCI-H522 lung
  TGI: 2860 nM
MDA-MB-435
  TGI: 2.86 µM
MDA-MB-231 breast
  TGI: 2.99 µM
HCT-116 colon
  TGI: 2330 nM
RPMI-8226 leukemia
  TGI: > 100 µM
NCI-H460 lung
  TGI: > 100 µM
SF-539 CNS
  TGI: 3.16 µM
DU-145 prostate
  TGI: 2.76 µM
IGROV1 ovarian
  TGI: 3.24 µM
HT29 colon
  TGI: 2770 nM
CCRF-CEM leukemia
  TGI: 2210 nM
RXF 393 renal
  TGI: 1710 nM
MALME-3M melanoma
  TGI: 3.61 µM
SNB-19 CNS
  TGI: 2.3 µM
ACHN renal
  TGI: 2.97 µM
SR leukemia
  TGI: 2.88 µM
U251 CNS
  TGI: 2110 nM
HOP-92 NSCLC
  TGI: 3.38 µM
A549 NSCLC
  TGI: 2.31 µM
PC-3 prostate
  TGI: 2.57 µM
NCI-H23 lung
  TGI: 2.67 µM
786-0 renal
  TGI: 1830 nM
UACC-257 melanoma
  TGI: 3030 nM
M14 melanoma
  TGI: 904 nM
COLO 205 colon
  TGI: 2.33 µM
OVCAR-4 ovarian
  TGI: 2.64 µM
SK-MEL-28 melanoma
  TGI: 2.84 µM
HCT-15 colon
  TGI: 2.5 µM
A498 renal
  TGI: 13.9 µM
NCI/ADR-RES ovarian
  TGI: 2.54 µM
OVCAR-8 ovarian
  TGI: 3340 nM
KM12 colon
  TGI: 2.32 µM
MOLT-4 leukemia
  TGI: 2.81 µM
SW-620 colon
  TGI: 2570 nM

## C=C1CCC2C(C)(COC(=O)CC)C(OC(=O)CC)CCC2(C)C1C/C=C1/C(=O)OCC1OC(=O)CC (centres undefined)
NCI-H522 lung
  GI50: 346 nM
  TGI: 1700 nM
MDA-MB-435
  GI50: 1680 nM
  TGI: 3.7 µM
MDA-MB-231 breast
  GI50: 2310 nM
  TGI: 5.19 µM
HL-60(TB) leukemia
  GI50: 1820 nM
  TGI: 5.85 µM
HCT-116 colon
  GI50: 1140 nM
  TGI: 2550 nM
HS 578T breast
  GI50: 3.41 µM
  TGI: 25.5 µM
UACC-62 melanoma
  GI50: 2230 nM
  TGI: 5.2 µM
RPMI-8226 leukemia
  GI50: 3.77 µM
  TGI: > 100 µM
TK-10 renal
  GI50: 2040 nM
  TGI: 5.59 µM
NCI-H460 lung
  GI50: 1980 nM
  TGI: 3.59 µM
SF-539 CNS
  GI50: 1840 nM
  TGI: 4.17 µM
DU-145 prostate
  GI50: 1820 nM
  TGI: 3.25 µM
IGROV1 ovarian
  GI50: 1900 nM
  TGI: 3.69 µM
OVCAR-3 ovarian
  GI50: 1770 nM
  TGI: 3.15 µM
HT29 colon
  GI50: 987 nM
  TGI: 2240 nM
CCRF-CEM leukemia
  GI50: 558 nM
  TGI: > 100000 nM
SK-OV-3 ovarian
  GI50: 3.85 µM
  TGI: 9.74 µM
RXF 393 renal
  GI50: 1660 nM
  TGI: 3050 nM
MALME-3M melanoma
  GI50: 2080 nM
  TGI: 3.99 µM
OVCAR-5 ovarian
  GI50: 2450 nM
  TGI: 5.35 µM
SNB-19 CNS
  GI50: 3.74 µM
  TGI: 14.7 µM
SNB-75 CNS
  GI50: 1220 nM
  TGI: 3.68 µM
ACHN renal
  GI50: 1740 nM
  TGI: 3.24 µM
UO-31 renal
  GI50: 1880 nM
  TGI: 3.38 µM
SK-MEL-5 melanoma
  GI50: 2080 nM
  TGI: 4.39 µM
SN12C renal
  GI50: 2630 nM
  TGI: 10.1 µM
SF-295 CNS
  GI50: 1700 nM
  TGI: 3.99 µM
SF-268 CNS
  GI50: 1910 nM
  TGI: 3.39 µM
K-562 leukemia
  GI50: 1790 nM
  TGI: 10.4 µM
LOX IMVI melanoma
  GI50: 1510 nM
  TGI: 3.01 µM
SR leukemia
  GI50: 1580 nM
  TGI: 5.28 µM
SK-MEL-2 melanoma
  GI50: 1440 nM
  TGI: 3.02 µM
HCC-2998 colon
  GI50: 4.25 µM
  TGI: 13.9 µM
U251 CNS
  GI50: 1300 nM
  TGI: 2590 nM
HOP-92 NSCLC
  GI50: 3.03 µM
  TGI: 7.15 µM
A549 NSCLC
  GI50: 2030 nM
  TGI: 4.22 µM
PC-3 prostate
  GI50: 2170 nM
  TGI: 4.91 µM
NCI-H23 lung
  GI50: 3.39 µM
  TGI: 13.2 µM
786-0 renal
  GI50: 1900 nM
  TGI: 3480 nM
UACC-257 melanoma
  GI50: 1330 nM
  TGI: 2700 nM
HOP-62 NSCLC
  GI50: 1700 nM
  TGI: 3.27 µM
M14 melanoma
  GI50: 1940 nM
  TGI: 4660 nM
COLO 205 colon
  GI50: 2100 nM
  TGI: 3.96 µM
CAKI-1 renal
  GI50: 1650 nM
  TGI: 3.37 µM
OVCAR-4 ovarian
  GI50: 2330 nM
  TGI: 6.9 µM
SK-MEL-28 melanoma
  GI50: 1950 nM
  TGI: 4.1 µM
HCT-15 colon
  GI50: 1960 nM
  TGI: 6 µM
A498 renal
  GI50: 4.05 µM
  TGI: 13.3 µM
NCI/ADR-RES ovarian
  GI50: 2840 nM
  TGI: 10.5 µM
OVCAR-8 ovarian
  GI50: 634 nM
  TGI: 2130 nM
NCI-H226 lung
  GI50: 2130 nM
  TGI: 4.1 µM
EKVX NSCLC
  GI50: 7.96 µM
  TGI: 22.1 µM
KM12 colon
  GI50: 1860 nM
  TGI: 3.75 µM
MOLT-4 leukemia
  GI50: 2620 nM
  TGI: 11.6 µM
SW-620 colon
  GI50: 1170 nM
  TGI: 2440 nM

From PubChem BioAssay (NCI)
